Assay results from patent publication US6413983B1, “Benzopyranyl heterocycle derivatives, process for preparation thereof, and pharmaceutical compositions containing them” (Dongbu Hannong Chemical Co. Ltd., priority 2000, dated 2002).
pIC50: −log10 of the molar value.

Key:
[1] = system: isolated rat aorta constricted with methoxamine; assay: Vasodilation effects on isolated aorta of rats (methoxamine-constricted rings); settings: isolated rat aorta constricted with methoxamine (3 μM); 50% relaxation
Description: Male Sprague-Dawly rats (350-450 g, obtained from the Experimental Animal Team of the Korea Research Institute of Chemical Technology) were knocked unconscious by hitting the occipital region, sacrificed by cervical dislocation, and underwent thoracotomy. After being quickly removed, the thoracic aorta was deprived of the adipose tissue and cut into aortic rings of 3 mm width. The aorta was lightly rubbed with cotton club soaked in a modified Krebs Henseleit buffer (Physiological Salt Solution, PSS) to remove the inner epithelial layer therefrom.
Thereafter, 3×10^−6 M methoxamine was applied to induce an intensive constriction in the vascular smooth muscle. When the vasoconstriction induced by the methoxamine was reached and maintained to a maximum, test compounds and controls were cumulatively added to the organ baths in concentrations of 1, 3, 10 and 30 μM so as to examine the vasodilation effect.
The change rate of constriction by the addition of the drugs compared to the maximal constriction induced by methoxamine was calculated to plot a concentration-relaxation response curve.

isolated rat hearts = assay: Cardioprotective activity in isolated ischemic heart models of rats (Langendorff, global ischemia/reperfusion); settings: 10 μM; for LDH (U/g): cumulative reperfusion LDH release; for EDP (MmHg): left ventricular end-diastolic pressure after 30 min reperfusion; for LDVP × HR (%): reperfusion double product as % of pretreatment DP, 30 min global ischemia, 30 min reperfusion; for TTC: time to contracture during global ischemia
Procedure: Male Sprague-Dawley rats weighing 300-450 g were anesthetized with sodium pentobarbital (100 mg/kg, i.p.). The tail vein was injected with heparin (1,000 U/kg) and then the trachea was intubated. […] A latex balloon filled with solvent (ethanol: water=1:1 (v/v)) and attached to a metal cannula was placed in the left ventricle through pulmonary vein and connected to a Isotec pressure transducer (H.S.E., Germany) for measurement of left ventricular pressure (LVP). […] Then, baseline contractile function, heart rate (HR), and coronary flow (CF) (extracorporeal electromagnetic flow probe, Narco Bio-System, U.S.A.) were measured. Cardiac contractile function was calculated by subtracting LVEDP from LV peak systolic pressure (LVSP), yielding developed pressure (LVDP). Double product (DP), another important parameter for assessing cardiac performance, was calculated by multiplying HR by LVDP. Throughout the experiment, all these parameters were measured, and calculated before and 10 min after pretreatment with each compound and 30 min after the onset of reperfusion with buffer. Data on reperfusion DP were further expressed as the percentage to pretreatment DP.
We then rendered the hearts globally ischemic by completely shutting off the perfusate for 30 min. Severity of ischemia was determined as the time to contracture (TTC, min) during global ischemia in which the first 5 mmHg increase in EDP was observed. Then, the hearts were reperfused and, 30 min later, contractile function (LVDP, DP) and cumulative reperfusion lactate dehydrogenase (LDH) release were measured. LDH was measured as a sensitive index for loss of cell viability with a kit supplied by Boerhinger Mannheim based on the technique of Wroblewski and LaDue [F. Wroblewski and JS.

[2] = system: ischemic myocardium damage model of anesthetized rats; assay: Cardioprotective activity in ischemic heart models of rats (LAD occlusion/reperfusion, anesthetized rats); assay type: in vivo, rat; settings: rat in vivo, 0.3 mg/kg i.v.; for AAR/LV (%): area at risk per left ventricle; for IZ/AAR (%): myocardial infarction rate to area at risk, 45 min occlusion, 90 min reperfusion
Procedure: After trachetomy, the rats were rendered to respire artificially at a rate of 60/min with a stroke volume of 10 ml/kg. Cannulars were inserted into the fermoral vein and the fermoral artery and used for drug administration and blood pressure measurement, respectively.
In the ischemic myocardial injury models, the body temperature has an important influence on the results. To avoid the change in the body temperature, a body temperature measuring probe was inserted into the rectum of each rat and the body temperature was constantly kept at 37° C. with the aid of a homeothermic blanket control unit.
Afterwards, during testing, a continuous measurement was made of the mean arterial blood pressures and heart rates from the rats. For the measurement of the blood pressure, a pressure transducer, such as that manufactured by Grass Ins., MA, U.S.A., identified as Model Statham P23XL, was used.
The heart rate was measured by a tachometer, such as that manufactured by Gould Inc., Ohio, U.S.A., identified as Biotachometer. In addition, all of the changes occurring were continuously recorded through the Gould 2000 chart recorder, manufactured by Gould Inc.
The left coronary artery was occluded according to the Selye H. method as follows. The rats underwent a left thoracotomy operation for partial opening of the chest and the right-side chest was pressurized by the middle finger of the left hand to push the heart out. Immediately after the left anterior descending coronary artery hereinafter referred to as (LAD) was carefully stitched using a suture needle with 5-0 silk ligature, the heart was then repositioned in the thoracic cavity while both ends of the ligature were situated outside. The opposite ligature ends were passed through a PE tube (PE100, 2.5 cm) and allowed to stand loose for 20 min for stabilization. Via the cannula inserted into the femoral vein, vehicles or drugs were administered into the rats which were rendered to stand for 30 min in order to sufficiently elicit the efficacies of the drugs.
Next, the PE tube which had the doubled strands of the ligature passed therethrough was pushed toward the heart and then, set upright by tightly pulling end regions of the ligature with a hemostatic pincette while pressing the coronary artery.
After the reocclusion of the coronary artery in accordance with the above procedure, the rats were administered with 2 ml of a 1% Evans blue through an intravenous route. Subsequently, an excess of pentobarbital was intravenously injected to kill the rats, after which the heat was removed and then, deprived of the right ventricle and both atria. The left ventricle was cut horizontally to the heart apex into 5 or 6 slices which were weighed. From the surface of each slice, images were input with the aid of a Hi-scope into a computer installed with an image analyzing program (Image Pro Plus). From the images input into the computer, the area of the normal blood stream tissue region which appeared blue in a computer monitor and the area which appeared colorless were measured. The percentage of the colorless area to the total area of each slice was calculated and multiplied by the weight of each slice to determine the area at risk (AAR) of each slice. The AAR obtained from each slice was summed for all slices and the total AAR was divided by the total weight of the left ventricle to yield % AAR, as shown in the following mathematical formula 1:
AAR(%)=(summed AAR for all slices)/(total weight of left ventricle)×100 [Mathematical Formula 1]
During this fixation, 2,3,5-triphenyltetrazolium chloride was reduced into formazan dye by the myocardial dehydrogenase and its cofactor NADH, so that the normal regions of the tissue were colored brick-red. In contrast, the infarct zones of the tissue were deficient in the dehydrogenase and its cofactor, so that no reduction occurred on the 2,3,5-triphenyltetrazolium, allowing the color to remain unchanged.

[3] = system: cerebral cortical neurons; assay: Protective activity for neuronal cells against iron-induced damage (LDH release); assay type: cell-based, rat; settings: 30 μM compound; 50 uM FeSO4, 24 hours; LDH reduction rate vs control
in vivo = settings: SD, rat, po, 1 g/kg
Procedure: In this test six-week old SPF SD rats were used with two rats assigned to each group. […] The dosing volume was 10 ml/kg. […] All survivors at the end of the observation period underwent laparotomy under ether anesthesia and the blood samples were taken from the abdominal aorta for hematological tests and biochemical analysis. After sacrificing the animals, autopsy was performed for macroscopic observation of the organs and tissues. Tissue samples of vital organs from macroscopic legion were removed and fixed in 10% neutral buffered formalin solution, then processed by standard procedures for histopathology and examined under light microscope.

SMILES: CCOC(=O)[C@@H]1Cc2ccccc2N1[C@H]1c2cc([N+](=O)[O-])ccc2O[C@](C)(C(OC)OC)[C@@H]1O [Example 2, 1-[(2S, 3R, 4S)-3,4-dihydro-2-dimethoxymethyl-3-hydroxy-2-methyl-6-nitro-2H-1-benzopyran-4-yl]-(2S)-2,3-dihydro-1H-indole-2-carboxylic acid ethyl ester]
- pIC50 [1]: 4.61
- LDH (U/g) (isolated rat hearts): 17.8 U/g
- EDP (MmHg) (isolated rat hearts): 25.7 MmHg
- LDVP × HR (%) (isolated rat hearts): 55.1%
- TTC (isolated rat hearts): 22.6 min
- AAR/LV (%) [2]: 32.6%
- IZ/AAR (%) [2]: 39.1%
- % Protection [3]: 79%
- LD50 (in vivo): > 1000 mg/kg

SMILES: CCOC(=O)[C@H]1Cc2ccccc2N1[C@@H]1c2cc([N+](=O)[O-])ccc2O[C@@](C)(C(OC)OC)[C@H]1O [Example 30, 1-[(2R, 3S, 4R)-3,4-dihydro-2-dimethoxymethyl-3-hydroxy-2-methyl-6-nitro-2H-1-benzopyran-4-yl]-(2R)-2,3-dihydro-1H-indole-2-carboxylic acid ethyl ester]
- pIC50 [1]: < 4.52
- LDH (U/g) (isolated rat hearts): 9.2 U/g
- EDP (MmHg) (isolated rat hearts): 11.3 MmHg
- LDVP × HR (%) (isolated rat hearts): 64.1%
- TTC (isolated rat hearts): 27.1 min
- AAR/LV (%) [2]: 33.6%
- IZ/AAR (%) [2]: 38.9%
- LD50 (in vivo): > 1000 mg/kg
